Where two headings read alike, the source gives them in different places.
Key:
[1] = pharmacokinetic studies in rats; details: male, Sprague-Dawley, rat, in vivo
Method: Male Sprague-Dawley rats, weighing 250-400 g, were obtained from Charles Rivers Laboratories. Pharmacokinetic studies were conducted in three groups of rats; each group contained three animals. All groups were dosed with a solution formulation. The first group of three rats received an intravenous dose, administered under isoflurane anesthetic. The second group received an intraperitoneal dose and the third group received an oral dose, administered by gavage. Sequential blood samples were obtained from a tail vein of each animal for 8-24 hours after dosing. Plasma was separated by centrifugation and stored frozen until analysis.
Half life […] and plasma clearance values are based on intravenous administration (3 micromole/kg).
Half life (t1/2) and plasma clearance values are based on intravenous administration (3 micromole/kg).

rat CB2 [2] = biological target: T1, rat CB2 (Rattus norvegicus, UniProt Q9QZN9); test: rat CB2 cyclase functional assay (HitHunter cAMP); type: cell-based; set-up: expressed in transfected cells; host or cells: HEK; details: HEK cells, forskolin 18 μM
T1 sequence (Q9QZN9 1-360): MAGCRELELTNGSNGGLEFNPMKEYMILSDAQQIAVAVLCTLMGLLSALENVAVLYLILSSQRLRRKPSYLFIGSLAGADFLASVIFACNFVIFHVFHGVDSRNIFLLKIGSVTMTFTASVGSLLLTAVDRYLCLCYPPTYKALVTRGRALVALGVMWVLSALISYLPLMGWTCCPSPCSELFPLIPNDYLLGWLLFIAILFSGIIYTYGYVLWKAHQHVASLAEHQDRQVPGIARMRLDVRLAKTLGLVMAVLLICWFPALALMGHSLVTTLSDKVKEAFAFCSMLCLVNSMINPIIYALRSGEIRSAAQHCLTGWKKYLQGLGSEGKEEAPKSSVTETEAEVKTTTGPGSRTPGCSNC
Method: The cyclase functional assays were performed using the HitHunter™ cAMP assay kit from DiscoveRx (Fremont, Calif.) according to vendor's protocol. Briefly, HEK cells expressing CB2 or CB1 receptors (rat or human) were detached using cell dissociation buffer (Invitrogen, Carlsbad, Calif.), dispersed and placed in suspension at 10,000 cells per well in 96 well plates prior to the assay. Cell suspensions were incubated at 37° C. for 20 min with variable concentrations of test ligands and or 10 μM CP 55,940-positive control in the presence of a fixed concentration of forskolin (18 μM for rat CB2 and 37 μM for rat CB1) in Dulbescco's phosphate-buffered saline (Invitrogen, Carlsbad, Calif.) supplemented with bovine serum albumin (0.01% final concentration). The reactions were terminated by the addition of lysis buffer and the luminescence was detected following the procedure according to the manufacturer's instructions. EC50 values were calculated using sigmoidal dose-response curve fitting from Prism (GraphPad).

human CB2 receptors = biological target: T2, human CB2 receptors (Homo sapiens, UniProt P34972); test: human CB2 radioligand binding assay ([3H]CP 55,940 competition); details: HEK293 membranes, 0.5 nM [3H]CP 55,940
T2 construct: expressed in transfected cells; host or cells: HEK293
T2 sequence (P34972 whole entry): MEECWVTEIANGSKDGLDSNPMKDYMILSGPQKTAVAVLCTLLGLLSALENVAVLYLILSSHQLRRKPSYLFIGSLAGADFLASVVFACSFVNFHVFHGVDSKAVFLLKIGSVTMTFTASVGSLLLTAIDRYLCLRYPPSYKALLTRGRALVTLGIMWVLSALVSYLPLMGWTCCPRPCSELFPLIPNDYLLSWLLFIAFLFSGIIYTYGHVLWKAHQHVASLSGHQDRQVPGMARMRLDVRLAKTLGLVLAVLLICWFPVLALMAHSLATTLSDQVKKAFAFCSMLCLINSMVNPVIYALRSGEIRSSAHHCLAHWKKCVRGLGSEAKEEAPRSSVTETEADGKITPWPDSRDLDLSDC
Method in brief: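 Membranes from HEK293 cells stably expressing human CB2 (5 μg protein/well) competed against 0.5 nM [3H]CP 55,940 with five concentrations of test ligand (0.01 nM to 10 μM), pH 7.4 Tris buffer with BSA, 90 min at 30 °C. Filtration and scintillation counting; nonspecific binding with 10 μM unlabeled CP 55,940.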

Rat CB1 = biological target: T3, Rat CB1 (Rattus norvegicus, UniProt P20272); test: rat CB1 cyclase functional assay (HitHunter cAMP); type: cell-based; details: HEK cells, forskolin 37 μM
T3 construct: expressed in transfected cells; host or cells: HEK
T3 sequence (P20272 whole entry): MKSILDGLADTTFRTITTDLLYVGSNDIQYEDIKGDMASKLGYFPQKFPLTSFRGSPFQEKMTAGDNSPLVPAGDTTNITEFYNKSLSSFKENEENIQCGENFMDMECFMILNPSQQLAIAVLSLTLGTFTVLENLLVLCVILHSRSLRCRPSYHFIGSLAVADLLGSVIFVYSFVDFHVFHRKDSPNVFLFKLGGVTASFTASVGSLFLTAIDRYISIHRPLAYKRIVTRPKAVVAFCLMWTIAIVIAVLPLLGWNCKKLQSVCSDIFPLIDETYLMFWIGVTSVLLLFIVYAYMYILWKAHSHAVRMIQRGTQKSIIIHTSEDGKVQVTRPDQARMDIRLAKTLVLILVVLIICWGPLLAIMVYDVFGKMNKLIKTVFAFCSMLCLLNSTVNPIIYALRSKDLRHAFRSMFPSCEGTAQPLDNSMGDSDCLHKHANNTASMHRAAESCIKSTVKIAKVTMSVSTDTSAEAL
Method in brief: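 HEK cells expressing rat CB1 or CB2, 10,000 cells/well, incubated 20 min at 37° C with test ligands plus forskolin (37 μM for CB1, 18 μM for CB2) in DPBS with 0.01% BSA. cAMP read by enzyme-complementation luminescence after lysis; EC50 from sigmoidal dose-response fit.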

rat CB2 [3] = biological target: T1, rat CB2; test: rat CB2 radioligand binding assay ([3H]CP 55,940 competition); set-up: expressed in transfected cells; host or cells: HEK293; details: HEK293 membranes, 0.5 nM [3H]CP 55,940
Method in brief: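 Membranes (20 μg protein/well) from HEK293 cells stably expressing the receptor were incubated 45 min at 30 °C with 0.5 nM [3H]CP 55,940 and five concentrations of test compound (0.01 nM–10 μM) in Tris/EDTA/MgCl2/BSA buffer, pH 7.4. Bound ligand was measured by GF/C filtration and scintillation counting; 10 μM CP 55,940 defined nonspecific binding.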

SMILES | clearance ([1]; iv, 3 micromole/kg) [mL/min/kg] | half-life ([1]; iv, 3 micromole/kg) [h] | bioavailability ([1]; po, 10 micromole/kg) [%] | EC50 (rat CB2 [2]; rat CB2 cyclase (EC50, nM)) [nM] | Ki (human CB2 receptors; human CB2 (Ki, nM)) [nM] | EC50 (Rat CB1; Rat CB1 cyclase (EC50, nM)) [nM] | Ki (rat CB2 [3]; rat CB2 (Ki, nM)) [nM] | EC50 (rat CB2 [2]; read-out: rat CB2 cyclase (EC50)) [nM] | Ki (human CB2 receptors; read-out: human CB2 (Ki)) [nM] | EC50 (Rat CB1; read-out: Rat CB1 cyclase (EC50)) [nM] | Ki (rat CB2 [3]; read-out: rat CB2 (Ki)) [nM]
Cn1c(C(C)(C)C)c/c(=N\C(=O)c2cc(C(F)(F)F)ccc2OCC(C)(C)O)n1C[C@H]1CCCO1 [Example 5, N-{(3E)-5-tert-butyl-1-methyl-2-[(2R)-tetrahydrofuran-2-ylmethyl]-1,2-dihydro-3H-pyrazol-3-ylidene}-2-(2-hydroxy-2-methylpropoxy)-5-(trifluoromethyl)benzamide] | 18.3 | 2.1 | 37 | 0.22 | 10 | 7690 | 5.5 |  |  |  | 
CCOCCOCCOc1ccc(C(F)(F)F)cc1C(=O)/N=c1\cc(C(C)(C)C)n(C)n1C[C@H]1CCCO1 [Example 47, N-{(3E)-5-tert-butyl-1-methyl-2-[(2R)-tetrahydrofuran-2-ylmethyl]-1,2-dihydro-3H-pyrazol-3-ylidene}-2-[2-(2-ethoxyethoxy)ethoxy]-5-(trifluoromethyl)benzamide] |  |  |  | 5.6 | 70 | > 27000 | 89 |  |  |  | 
Cn1c(C(C)(C)C)c/c(=N\C(=O)c2cc(C(F)(F)F)ccc2OCCNS(=O)(=O)C2CC2)n1C[C@H]1CCCO1 [Example 49, N-{(3E)-5-tert-butyl-1-methyl-2-[(2R)-tetrahydrofuran-2-ylmethyl]-1,2-dihydro-3H-pyrazol-3-ylidene}-2-{2-[(cyclopropylsulfonyl)amino]ethoxy}-5-(trifluoromethyl)benzamide] |  |  |  | 0.12 | 13 | 4190 | 2.7 |  |  |  | 
CCS(=O)(=O)NCCOc1ccc(C(F)(F)F)cc1C(=O)/N=c1\cc(C(C)(C)C)n(C)n1C[C@H]1CCCO1 [Example 50] |  |  |  | 0.12 | 21 | 1180 | 8.5 |  |  |  | 
Cn1c(C(C)(C)C)c/c(=N\C(=O)c2cc(C(F)(F)F)ccc2OC[C@@H]2CCC(C)(C)O2)n1C[C@H]1CCCO1 [Example 52] |  |  |  |  |  |  |  | 0.93 | 10 | > 27000 | 19
Cn1c(C(C)(C)C)c/c(=N\C(=O)c2cc(C(F)(F)F)ccc2OCCC2=CCCC2)n1C[C@H]1CCCO1 [Example 53, N-{(3E)-5-tert-butyl-1-methyl-2-[(2R)-tetrahydrofuran-2-ylmethyl]-1,2-dihydro-3H-pyrazol-3-ylidene}-2-(2-cyclopent-1-en-1-ylethoxy)-5-(trifluoromethyl)benzamide] |  |  |  | 2.7 | 1.5 | 1970 | 2.8 |  |  |  | 
Cn1c(C(C)(C)C)c/c(=N\C(=O)c2cc(C(F)(F)F)ccc2OCCS(C)(=O)=O)n1C[C@H]1CCCO1 [Example 56] |  |  |  | 0.93 | 66 | 2780 | 28 |  |  |  | 
CSCCOc1ccc(C(F)(F)F)cc1C(=O)/N=c1\cc(C(C)(C)C)n(C)n1C[C@H]1CCCO1 [Example 57] |  |  |  | 1.4 | 11 | 7530 | 1.9 |  |  |  | 
CSCCCOc1ccc(C(F)(F)F)cc1C(=O)/N=c1\cc(C(C)(C)C)n(C)n1C[C@H]1CCCO1 [Example 58] |  |  |  | 0.7 | 3.9 | > 27000 | 5.1 |  |  |  | 
Cn1c(C(C)(C)C)c/c(=N\C(=O)c2cc(C(F)(F)F)ccc2OCCCS(C)(=O)=O)n1C[C@H]1CCCO1 [Example 60, N-{(3E)-5-tert-butyl-1-methyl-2-[(2R)-tetrahydrofuran-2-ylmethyl]-1,2-dihydro-3 H-pyrazol-3-ylidene}-2-[3-(methylsulfonyl)propoxy]-5-(trifluoromethyl)benzamide] |  |  |  | 0.26 | 92 | > 27000 | 42 |  |  |  | 
Cn1c(C(C)(C)C)c/c(=N\C(=O)c2cc(C(F)(F)F)ccc2OC[C@@H]2CCCN2)n1C[C@H]1CCCO1 [Example 62, N-{(3E)-5-tert-butyl-1-methyl-2-[(2R)-tetrahydrofuran-2-ylmethyl]-1,2-dihydro-3 H-pyrazol-3-ylidene}-2-[(2S)-pyrrolidin-2-ylmethoxy]-5-(trifluoromethyl)benzamide] |  |  |  | 0.28 | 82 | > 27000 | 21 |  |  |  | 
Cn1c(C(C)(C)C)c/c(=N\C(=O)c2cc(C(F)(F)F)ccc2OC[C@@H]2CCN2S(C)(=O)=O)n1CC1CC1 [Example 63, N-[(3E)-5-tert-butyl-2-(cyclopropylmethyl)-1-methyl-1,2-dihydro-3H-pyrazol-3-ylidene]-2-{[(2S)-1-(methylsulfonyl)azetidin-2-yl]methoxy}-5-(trifluoromethyl)benzamide] |  |  |  | 2.5 | 301 | > 27000 | 139 |  |  |  | 
CN1CC[C@H]1COc1ccc(C(F)(F)F)cc1C(=O)/N=c1\oc(C(C)(C)C)cn1C[C@H]1CCCO1 [Example 74, N-[(2Z)-5-tert-butyl-3-[(2R)-tetrahydrofuran-2-ylmethyl]-1,3-oxazol-2(3 H)-ylidene]-2-{[(2S)-1-methylazetidin-2-yl]methoxy}-5-(trifluoromethyl)benzamide] |  |  |  | 0.42 | 188 | 3350 | 96 |  |  |  | 
CN1CCC[C@H]1COc1ccc(C(F)(F)F)cc1C(=O)/N=c1\oc(C(C)(C)C)cn1CC1CCC1 [Example 75] |  |  |  | 0.19 | 42 | 1360 | 44 |  |  |  | 
CC(C)(C)c1cn(C[C@H]2CCCO2)/c(=N/C(=O)c2cc(C(F)(F)F)ccc2OCCN2CCCC2)o1 [Example 77, N-[(2Z)-5-tert-butyl-3-[(2R)-tetrahydrofuran-2-ylmethyl]-1,3-oxazol-2(3 H)-ylidene]-2-(2-pyrrolidin-1-ylethoxy)-5-(trifluoromethyl)benzamide] |  |  |  | 0.1 | 96 | 2560 | 73 |  |  |  | 
CC(=O)NCCOc1ccc(C(F)(F)F)cc1C(=O)/N=c1\cc(C(C)(C)C)n(C)n1C[C@H]1CCCO1 [Example 78, 2-[2-(acetylamino)ethoxy]-N-{(3E)-5-tert-butyl-1-methyl-2-[(2R)-tetrahydrofuran-2-ylmethyl]-1,2-dihydro-3H-pyrazol-3-ylidene}-5-(trifluoromethyl)benzamide] |  |  |  | 1.9 | 15 | 8880 | 18 |  |  |  | 
Cn1c(C(C)(C)C)c/c(=N\C(=O)c2cc(C(F)(F)F)ccc2OC[C@@H]2CCCCN2)n1C[C@H]1CCCO1 [Example 88, N-{(3E)-5-tert-butyl-1-methyl-2-[(2R)-tetrahydrofuran-2-ylmethyl]-1,2-dihydro-3 H-pyrazol-3-ylidene}-2-[(2S)-piperidin-2-ylmethoxy]-5-(trifluoromethyl)benzamide] |  |  |  | 0.45 | 14 | 702 | 3.5 |  |  |  | 

Source: patent US8188135B2, “Compounds as cannabinoid receptor ligands” (priority 2008, dated 2012)
